Target: T1, human LTA4 hydrolase (Homo sapiens, UniProt P09960)
T1 sequence (P09960 1-611): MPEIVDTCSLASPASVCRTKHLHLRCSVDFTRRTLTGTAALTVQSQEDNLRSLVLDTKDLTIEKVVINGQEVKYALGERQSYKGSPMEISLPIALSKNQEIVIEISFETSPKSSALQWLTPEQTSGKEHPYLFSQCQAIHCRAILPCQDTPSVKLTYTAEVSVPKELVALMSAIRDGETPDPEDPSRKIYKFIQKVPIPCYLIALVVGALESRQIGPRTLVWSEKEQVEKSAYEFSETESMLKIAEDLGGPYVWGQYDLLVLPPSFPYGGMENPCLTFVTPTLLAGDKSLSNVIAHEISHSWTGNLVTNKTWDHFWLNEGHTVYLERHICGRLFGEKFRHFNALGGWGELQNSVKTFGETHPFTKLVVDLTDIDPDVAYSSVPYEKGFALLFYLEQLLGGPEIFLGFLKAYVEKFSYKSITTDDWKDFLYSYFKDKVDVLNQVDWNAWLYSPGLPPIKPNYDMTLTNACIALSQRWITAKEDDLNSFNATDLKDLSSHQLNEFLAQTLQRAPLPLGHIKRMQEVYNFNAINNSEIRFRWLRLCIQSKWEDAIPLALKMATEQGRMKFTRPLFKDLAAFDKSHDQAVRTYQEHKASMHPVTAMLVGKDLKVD
Test: LTA4H Enzyme assay (cleavage of Arg-AMC, fluorescence)
Type: biochemical
Conditions: LTA4H Enzyme 1 nM, Arg-AMC substrate 50 μM, room temperature 1 h, fluorescence; read-out: IC50 values of LTA4H Enzyme assay
Description: The compounds of the invention are assessed for the ability to interact with human LTA4 hydrolase in an enzymatic assay that measures the ability of the enzyme to cleave the peptide bond of arginyl-aminomethylcoumarin (Arg-AMC). LTA4H Enzyme (1 nM final), Arg-AMC substrate (50 μM final), and compound are combined in a reaction buffer (50 mM Tris-HCl (pH 7.5), 100 mM KCl, 0.5% bovine serum albumin) at room temperature for 1 h. The formation of product is assessed by measuring the fluorescence of aminomethylcoumarin product (excitation wavelength 380 nm/emission wavelength 460 nm).

Row | SMILES | IC50 [nM]
1 | Oc1ccc2c(c1)CCN(Cc1ccc([C@H]3COc4ccccc4O3)cc1)C2 [Example 112, 2-{4-[(2S)-2,3-dihydro-1,4-benzodioxin-2-yl]benzyl}-1,2,3,4-tetrahydroisoquinolin-6-ol] | 1.07
2 | CC1CCCN1Cc1ccc([C@H]2COc3ccccc3O2)cc1 (stereo partly drawn) [Example 77, 1-{4-[(2S)-2,3-dihydro-1,4-benzodioxin-2-yl]benzyl}-2-methylpyrrolidine] | 0.18
3 | c1ccc2c(c1)OC[C@@H](c1ccc(CN3CCOCC3)cc1)O2 (single isomer, unassigned) [Example 199] | 40.1
4 | O=C1CCCN1CC1CCCN(Cc2ccc([C@H]3COc4cccnc4O3)cc2)C1 (stereo partly drawn) [Example 163, 1-[(1-{4-[(3S)-2,3-dihydro[1,4]dioxino[2,3-b]pyridin-3-yl]benzyl}piperidin-3-yl)methyl]pyrrolidin-2-one] | 0.17
5 | c1ccc2c(c1)OC[C@H](c1ccc(CN3CCOCC3)cc1)O2 (single isomer, unassigned) [Example 198] | 2.28
6 | CS(=O)(=O)N1CCC(NCc2ccc([C@H]3COc4cccnc4O3)cc2)CC1 [Example 167, N-{4-[(3S)-2,3-dihydro[1,4]dioxino[2,3-b]pyridin-3-yl]benzyl}-1-(methylsulfonyl)piperidin-4-amine] | 0.27
7 | O=C(O)C1CN(Cc2ccc([C@H]3COc4ccccc4O3)cc2)Cc2ccccc21 (stereo partly drawn) [Example 56, 2-{4-[(2S)-2,3-dihydro-1,4-benzodioxin-2-yl]benzyl}-1,2,3,4-tetrahydroisoquinoline-4-carboxylic acid] | 6.08
8 | COC1CCN(Cc2ccc(C3COc4ccccc4O3)cc2)C1 (racemic) [Example 47, 1-[4-(2,3-dihydro-1,4-benzodioxin-2-yl)benzyl]-3-methoxypyrrolidine] | 1.73
9 | N#CC1CN(Cc2ccc(C3COc4ccccc4O3)cc2)C1 (racemic) [Example 46, 1-[4-(2,3-dihydro-1,4-benzodioxin-2-yl)benzyl]azetidine-3-carbonitrile] | 24.8
10 | CN(C)C(=O)CC1CCN(Cc2ccc(C3COc4ccccc4O3)cc2)CC1 (racemic) [Example 38, 2-{1-[4-(2,3-dihydro-1,4-benzodioxin-2-yl)benzyl]piperidin-4-yl}-N,N-dimethylacetamide] | 1.14
11 | c1ccc2c(c1)OCC(c1ccc(CN3CCCCCC3)cc1)O2 (racemic) [Example 40, 1-[4-(2,3-dihydro-1,4-benzodioxin-2-yl)benzyl]azepane] | 0.82
12 | O=C1CCC2(CCN(Cc3ccc([C@H]4COc5cccnc5O4)cc3)C2)N1 (stereo partly drawn) [Example 127, 7-{4-[(3S)-2,3-dihydro[1,4]dioxino[2,3-b]pyridin-3-yl]benzyl}-1,7-diazaspiro[4.4]nonan-2-one] | 0.12
13 | CN1CCC(N(C)Cc2ccc([C@H]3COc4ccccc4O3)cc2)CC1 [Example 110, N-{4-[(2S)-2,3-dihydro-1,4-benzodioxin-2-yl]benzyl}-N,1-dimethylpiperidin-4-amine] | 2.15
14 | CCCNCc1ccc([C@H]2COc3ccccc3O2)cc1 [Example 73, N-{4-[(2S)-2,3-dihydro-1,4-benzodioxin-2-yl]benzyl}propan-1-amine] | 3.65
15 | O=C(O)C1CCN(Cc2ccc([C@@H]3COc4ccccc4O3)cc2)CC1 [Example 201, (R)-1-[4-(2,3-Dihydro-benzo[1,4]dioxin-2-yl)-benzyl]-piperidine-4-carboxylic acid] | 1.59
16 | OCCN(Cc1ccc([C@H]2COc3ccccc3O2)cc1)C1CCCCC1 [Example 80, 2-(cyclohexyl{4-[(2S)-2,3-dihydro-1,4-benzodioxin-2-yl]benzyl}amino)ethanol] | 0.71
17 | COCCOC1CCN(Cc2ccc([C@H]3COc4cccnc4O3)cc2)CC1 [Example 170, (3S)-3-(4-{[4-(2-methoxyethoxy)piperidin-1-yl]methyl}phenyl)-2,3-dihydro[1,4]dioxino[2,3-b]pyridine] | 0.47
18 | CC(C)(O)C(=O)NC1CCN(Cc2ccc([C@H]3COc4cccnc4O3)cc2)CC1 [Example 221, N-(1-{4-[(3S)-2,3-dihydro[1,4]dioxino[2,3-b]pyridin-4-yl]benzyl}piperidin-4-yl)-2-hydroxy-2-methylpropanamide] | 0.16
19 | O=C(O)[C@@H]1CC[C@H](NCc2ccc([C@H]3COc4ccccc4O3)cc2)C1 [Example 57, (1R,3S)-3-({4-[(2S)-2,3-dihydro-1,4-benzodioxin-2-yl]benzyl}amino)cyclopentane-carboxylic acid] | 13.7

Row | SMILES | IC50 [nM]
20 | c1ccc2c(c1)OC[C@H](c1ccc(CN3CCCC3)cc1)O2 (single isomer, unassigned) [Example 196] | 0.39
21 | O[C@@H]1CCN(Cc2ccc([C@H]3COc4cccnc4O3)cc2)C1 [Example 144, (3R)-1-{4-[(3S)-2,3-dihydro[1,4]dioxino[2,3-b]pyridin-3-yl]benzyl}pyrrolidin-3-ol] | 0.14
22 | COCCN(C)Cc1ccc(C2COc3ccccc3O2)cc1 (racemic) [Example 33, N-[4-(2,3-dihydro-1,4-benzodioxin-2-yl)benzyl]-2-methoxy-N-methylethanamine] | 3.19
23 | COCC(C)NCc1ccc([C@H]2COc3ccccc3O2)cc1 (stereo partly drawn) [Example 72, N-{4-[(2S)-2,3-dihydro-1,4-benzodioxin-2-yl]benzyl}-1-methoxypropan-2-amine] | 1.8
24 | NC(=O)C1CCN(Cc2ccc([C@@H]3COc4cccnc4O3)cc2)CC1 [Example 207, 1-{4-[(3R)-2,3-dihydro[1,4]dioxino[2,3-b]pyridin-3-yl]benzyl}piperidine-4-carboxamide] | 0.86
25 | O=C(NCCO)C1CCN(Cc2ccc([C@H]3COc4ccccc4O3)cc2)CC1 [Example 96, 1-{4-[(2S)-2,3-dihydro-1,4-benzodioxin-2-yl]benzyl}-N-(2-hydroxyethyl)piperidine-4-carboxamide] | 0.22
26 | O=C(O)c1cccc(CN2CCN(Cc3ccc([C@H]4COc5ccccc5O4)cc3)CC2)c1 [Example 239, 3-{4-[(S)-4-(2,3-Dihydro-benzo[1,4]dioxin-2-yl)-benzyl]-piperazin-1-ylmethyl}-benzoic acid] | 0.15
27 | O=C1NC(=O)C2(CCN(Cc3ccc(C4COc5ccccc5O4)cc3)CC2)N1 (racemic) [Example 35, 8-[4-(2,3-dihydro-1,4-benzodioxin-2-yl)benzyl]-1,3,8-triazaspiro[4.5]decan-2,4-dione] | 0.26
28 | C[C@H]1CC[C@H](NCc2ccc([C@H]3COc4ccccc4O3)cc2)CC1 [Example 100, trans-N-{4-[(2S)-2,3-dihydro-1,4-benzodioxin-2-yl]benzyl}-4-methylcyclohexanamine] | 2.36
29 | O=C(O)C1CCN(Cc2ccc([C@H]3COc4cccnc4O3)cc2)CC1 [Example 189, 1-{4-[(3S)-2,3-dihydro[1,4]dioxino[2,3-b]pyridin-3-yl]benzyl}piperidine-4-carboxylic acid] | 0.16
30 | O=C(O)C1(F)CCN(Cc2ccc([C@H]3COc4ccccc4O3)cc2)CC1 [Example 213, 1-{4-[(2S)-2,3-dihydro-1,4-benzodioxin-2-yl]benzyl}-4-fluoropiperidine-4-carboxylic acid] | 0.81
31 | CN(C)CCN(Cc1ccc([C@H]2COc3ccccc3O2)cc1)C1CCCCC1 [Example 104, N-cyclohexyl-N-{4-[(2S)-2,3-dihydro-1,4-benzodioxin-2-yl]benzyl}-N′,N′-dimethylethane-1,2-diamine] | 0.18
32 | OC[C@@H]1CCCC[C@H]1NCc1ccc([C@H]2COc3ccccc3O2)cc1 [Example 89, [(1R,2R)-2-({4-[(2S)-2,3-dihydro-1,4-benzodioxin-2-yl]benzyl}amino)cyclohexyl]methanol] | 1.4
33 | CS(=O)(=O)N1CCCC12CCN(Cc1ccc([C@H]3COc4ccccc4O3)cc1)C2 (stereo partly drawn) [Example 122, 7-{4-[(2S)-2,3-dihydro-1,4-benzodioxin-2-yl]benzyl}-1-(methylsulfonyl)-1,7-diazaspiro[4.4]nonane] | 0.91
34 | O=S1(=O)CCN(Cc2ccc(C3COc4ccccc4O3)cc2)CC1 (racemic) [Example 7, 4-[4-(2,3-dihydro-1,4-benzodioxin-2-yl)benzyl]thiomorpholine 1,1-dioxide] | 2.79
35 | c1ccc2c(c1)OC[C@H](c1ccc(CNC3CCCOC3)cc1)O2 (stereo partly drawn) [Example 103, N-{4-[(2S)-2,3-dihydro-1,4-benzodioxin-2-yl]benzyl}tetrahydro-2H-pyran-3-amine] | 2.4
36 | O[C@H]1CCN(Cc2ccc([C@H]3COc4cccnc4O3)cc2)C1 [Example 147, (3S)-1-{4-[(3S)-2,3-dihydro[1,4]dioxino[2,3-b]pyridin-3-yl]benzyl}pyrrolidin-3-ol] | 0.35
37 | NC(=O)C1CCN(Cc2ccc([C@H]3COc4cccnc4O3)cc2)CC1 [Example 206, 1-{4-[(3S)-2,3-dihydro[1,4]dioxino[2,3-b]pyridin-3-yl]benzyl}piperidine-4-carboxamide] | 0.19

Source: US8946203B2, “Benzodioxane inhibitors of leukotriene production” (Boehringer Ingelheim International GmbH, priority 2012, dated 2015)
